± gives the expanded uncertainty stated by the source.
Test: xn = mol fraction of the nth substance listed
Settings: 101 kPa, Liquid; for speed of sound: Sing-around technique in a fixed-path interferometer; for mass density: Vibrating tube method; for viscosity: Capillary tube (Ostwald / Ubbelohde) method

NCCN [ethane-1,2-diamine] + CCCCCCCCCCO
Settings | mass density [kg/m3] | speed of sound [m/s] | viscosity [mPa·s]
293.15 K, x1 = 0.0424 | 831.534 ± 0.14 | 1402.1 ± 0.9 | –
293.15 K, x1 = 0.1063 | 834.058 ± 0.14 | 1408.9 ± 0.9 | –
293.15 K, x1 = 0.1512 | 835.766 ± 0.14 | 1414.8 ± 0.9 | –
293.15 K, x1 = 0.1995 | 837.56 ± 0.15 | 1420.8 ± 0.9 | –
293.15 K, x1 = 0.2511 | 839.445 ± 0.15 | 1427.1 ± 1 | –
293.15 K, x1 = 0.2957 | 841.022 ± 0.15 | 1432.6 ± 1 | –
293.15 K, x1 = 0.3961 | 844.521 ± 0.16 | 1445.5 ± 1 | –
293.15 K, x1 = 0.4929 | 848.18 ± 0.17 | 1459.7 ± 1.1 | –
293.15 K, x1 = 0.609 | 853.458 ± 0.18 | 1481.8 ± 1.1 | –
293.15 K, x1 = 0.6962 | 858.67 ± 0.2 | 1504.6 ± 1.1 | –
293.15 K, x1 = 0.7975 | 866.833 ± 0.21 | 1541.1 ± 1.2 | –
293.15 K, x1 = 0.855 | 872.943 ± 0.21 | 1570.1 ± 1.2 | –
293.15 K, x1 = 0.9054 | 879.622 ± 0.22 | 1602.3 ± 1.3 | –
293.15 K, x1 = 0.9591 | 888.704 ± 0.23 | 1648.1 ± 1.3 | –
298.15 K, x1 = 0.0424 | 828.092 ± 0.14 | 1384.9 ± 0.9 | 10.96 ± 0.06
298.15 K, x1 = 0.1063 | 830.545 ± 0.14 | 1391.6 ± 0.9 | 10.6 ± 0.059
298.15 K, x1 = 0.1512 | 832.202 ± 0.14 | 1397.5 ± 0.9 | 10.36 ± 0.058
298.15 K, x1 = 0.1995 | 833.938 ± 0.15 | 1403.3 ± 0.9 | 9.921 ± 0.057
298.15 K, x1 = 0.2511 | 835.76 ± 0.15 | 1409.5 ± 1 | 9.382 ± 0.055
298.15 K, x1 = 0.2957 | 837.289 ± 0.15 | 1414.9 ± 1 | 8.821 ± 0.052
298.15 K, x1 = 0.3961 | 840.693 ± 0.16 | 1427.6 ± 1 | 7.355 ± 0.046
298.15 K, x1 = 0.4929 | 844.262 ± 0.17 | 1441.5 ± 1 | 6.047 ± 0.039
298.15 K, x1 = 0.609 | 849.415 ± 0.18 | 1463.1 ± 1.1 | 4.514 ± 0.031
298.15 K, x1 = 0.6962 | 854.51 ± 0.2 | 1485.4 ± 1.1 | 3.644 ± 0.026
298.15 K, x1 = 0.7975 | 862.525 ± 0.21 | 1521.3 ± 1.2 | 2.699 ± 0.02
298.15 K, x1 = 0.855 | 868.535 ± 0.21 | 1549.7 ± 1.2 | 2.198 ± 0.017
298.15 K, x1 = 0.9054 | 875.128 ± 0.22 | 1581.4 ± 1.2 | 1.874 ± 0.015
298.15 K, x1 = 0.9591 | 884.107 ± 0.23 | 1626.4 ± 1.3 | 1.598 ± 0.013
303.15 K, x1 = 0.0424 | 824.641 ± 0.14 | 1367.8 ± 0.9 | 9.008 ± 0.051
303.15 K, x1 = 0.1063 | 827.029 ± 0.14 | 1374.7 ± 0.9 | 8.713 ± 0.05
303.15 K, x1 = 0.1512 | 828.635 ± 0.15 | 1380.3 ± 0.9 | 8.442 ± 0.049
303.15 K, x1 = 0.1995 | 830.31 ± 0.15 | 1386.1 ± 0.9 | 8.104 ± 0.048
303.15 K, x1 = 0.2511 | 832.075 ± 0.15 | 1392.1 ± 0.9 | 7.658 ± 0.046
303.15 K, x1 = 0.2957 | 833.56 ± 0.16 | 1397.5 ± 1 | 7.229 ± 0.044
303.15 K, x1 = 0.3961 | 836.868 ± 0.17 | 1409.8 ± 1 | 6.168 ± 0.039
303.15 K, x1 = 0.4929 | 840.345 ± 0.17 | 1423.5 ± 1 | 5.062 ± 0.034
303.15 K, x1 = 0.609 | 845.37 ± 0.19 | 1444.5 ± 1.1 | 3.892 ± 0.027
303.15 K, x1 = 0.6962 | 850.353 ± 0.2 | 1466.5 ± 1.1 | 3.107 ± 0.022
303.15 K, x1 = 0.7975 | 858.212 ± 0.21 | 1501.6 ± 1.2 | 2.343 ± 0.017
303.15 K, x1 = 0.855 | 864.125 ± 0.21 | 1529.5 ± 1.2 | 1.985 ± 0.015
303.15 K, x1 = 0.9054 | 870.631 ± 0.22 | 1560.8 ± 1.2 | 1.66 ± 0.013
303.15 K, x1 = 0.9591 | 879.506 ± 0.23 | 1604.9 ± 1.3 | 1.403 ± 0.012
308.15 K, x1 = 0.0424 | 821.178 ± 0.14 | 1350.9 ± 0.9 | 7.295 ± 0.043
308.15 K, x1 = 0.1063 | 823.508 ± 0.14 | 1358 ± 0.9 | 7.087 ± 0.042
308.15 K, x1 = 0.1512 | 825.064 ± 0.15 | 1363.4 ± 0.9 | 6.852 ± 0.042
308.15 K, x1 = 0.1995 | 826.684 ± 0.15 | 1369.1 ± 0.9 | 6.563 ± 0.041
308.15 K, x1 = 0.2511 | 828.392 ± 0.15 | 1375 ± 0.9 | 6.202 ± 0.039
308.15 K, x1 = 0.2957 | 829.829 ± 0.16 | 1380.3 ± 1 | 5.881 ± 0.038
308.15 K, x1 = 0.3961 | 833.045 ± 0.17 | 1392.3 ± 1 | 5.028 ± 0.034
308.15 K, x1 = 0.4929 | 836.429 ± 0.17 | 1405.6 ± 1 | 4.23 ± 0.029
308.15 K, x1 = 0.609 | 841.323 ± 0.19 | 1426.1 ± 1.1 | 3.288 ± 0.023
308.15 K, x1 = 0.6962 | 846.189 ± 0.2 | 1447.5 ± 1.1 | 2.661 ± 0.019
308.15 K, x1 = 0.7975 | 853.898 ± 0.21 | 1481.9 ± 1.2 | 2.032 ± 0.015
308.15 K, x1 = 0.855 | 859.714 ± 0.21 | 1509.4 ± 1.2 | 1.708 ± 0.014
308.15 K, x1 = 0.9054 | 866.124 ± 0.22 | 1540.1 ± 1.2 | 1.485 ± 0.012
308.15 K, x1 = 0.9591 | 874.895 ± 0.23 | 1583.6 ± 1.3 | 1.238 ± 0.011
313.15 K, x1 = 0.0424 | 817.698 ± 0.14 | 1334.2 ± 0.9 | –
313.15 K, x1 = 0.1063 | 819.969 ± 0.14 | 1341.6 ± 0.9 | –
313.15 K, x1 = 0.1512 | 821.476 ± 0.15 | 1346.8 ± 0.9 | –
313.15 K, x1 = 0.1995 | 823.045 ± 0.15 | 1352.3 ± 0.9 | –
313.15 K, x1 = 0.2511 | 824.7 ± 0.15 | 1358.1 ± 0.9 | –
313.15 K, x1 = 0.2957 | 826.089 ± 0.16 | 1363.2 ± 1 | –
313.15 K, x1 = 0.3961 | 829.21 ± 0.17 | 1375 ± 1 | –
313.15 K, x1 = 0.4929 | 832.502 ± 0.17 | 1387.9 ± 1 | –
313.15 K, x1 = 0.609 | 837.271 ± 0.19 | 1407.9 ± 1.1 | –
313.15 K, x1 = 0.6962 | 842.017 ± 0.2 | 1428.6 ± 1.1 | –
313.15 K, x1 = 0.7975 | 849.57 ± 0.21 | 1462.5 ± 1.2 | –
313.15 K, x1 = 0.855 | 855.287 ± 0.21 | 1489.4 ± 1.2 | –
313.15 K, x1 = 0.9054 | 861.605 ± 0.22 | 1519.8 ± 1.2 | –
313.15 K, x1 = 0.9591 | 870.264 ± 0.23 | 1562.4 ± 1.3 | –

Source: the NIST ThermoML archive (doi:10.1016/j.jct.2012.01.022)
